Tests used:
Format in all cases: biochemical
[1] = target: T1, KRAS G12D (Homo sapiens, UniProt P01116, G12D); test: HTRF KRAS-SOS1 interaction assay, KRAS G12D; details: binned ≤2 μM / >2 μM, read-out: Inhibition of KRAS G12D (IC50)
T1 construct: made in house; host or cells: E. coli, e.g. BL21 (DE3)
Outline: (§1)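 GST-KRAS + anti-GST-Eu; His-hSOS1 + anti-6His-XL665; cpd in DMSO, duplicate, 10–0.01 μM; ~10 min incubation; HTRF ex 337/em 620, 665 nm; IC50 fitted on 665/620 ratio.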

[2] = target: T2, KRAS G12S (Homo sapiens, UniProt P01116, G12S); test: HTRF KRAS-SOS1 interaction assay, KRAS G12S; details: binned ≤2 μM / >2 μM, read-out: Inhibition of KRAS G12S (IC50)
T2 construct: made in house; host or cells: E. coli, e.g. BL21 (DE3)
Outline: as §1

[3] = target: T3, KRAS WT (Homo sapiens, UniProt P01116); test: HTRF KRAS-SOS1 interaction assay, wildtype KRAS; details: binned ≤2 μM / >2 μM, read-out: Inhibition of KRAS WT (IC50)
T3 construct: made in house; host or cells: E. coli, e.g. BL21 (DE3)
Outline: as §1

[4] = target: T4, KRAS G12V (Homo sapiens, UniProt P01116, G12V); test: HTRF KRAS-SOS1 interaction assay, KRAS G12V; details: binned ≤2 μM / >2 μM, read-out: Inhibition of KRAS G12V (IC50)
T4 construct: made in house; host or cells: E. coli, e.g. BL21 (DE3)
Outline: as §1

T4 sequence (P01116 1-188 isoform P01116-2 G12V): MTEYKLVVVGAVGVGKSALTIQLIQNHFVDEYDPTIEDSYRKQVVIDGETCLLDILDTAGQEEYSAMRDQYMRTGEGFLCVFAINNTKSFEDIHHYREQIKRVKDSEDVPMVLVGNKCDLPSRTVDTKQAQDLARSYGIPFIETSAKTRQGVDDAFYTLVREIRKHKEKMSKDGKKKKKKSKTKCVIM
T2 sequence (P01116 1-188 isoform P01116-2 G12S): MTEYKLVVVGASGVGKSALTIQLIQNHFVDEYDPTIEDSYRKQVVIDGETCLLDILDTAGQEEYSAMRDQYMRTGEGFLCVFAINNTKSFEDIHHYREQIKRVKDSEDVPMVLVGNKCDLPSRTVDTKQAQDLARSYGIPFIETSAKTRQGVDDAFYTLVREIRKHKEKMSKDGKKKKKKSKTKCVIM
T1 sequence (P01116 1-188 isoform P01116-2 G12D): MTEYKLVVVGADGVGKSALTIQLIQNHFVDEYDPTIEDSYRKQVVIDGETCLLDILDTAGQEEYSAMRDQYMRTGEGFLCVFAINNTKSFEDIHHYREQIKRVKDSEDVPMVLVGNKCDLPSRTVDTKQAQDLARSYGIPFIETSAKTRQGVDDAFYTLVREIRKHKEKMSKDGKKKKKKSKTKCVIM
T3 sequence (P01116 1-188 isoform P01116-2): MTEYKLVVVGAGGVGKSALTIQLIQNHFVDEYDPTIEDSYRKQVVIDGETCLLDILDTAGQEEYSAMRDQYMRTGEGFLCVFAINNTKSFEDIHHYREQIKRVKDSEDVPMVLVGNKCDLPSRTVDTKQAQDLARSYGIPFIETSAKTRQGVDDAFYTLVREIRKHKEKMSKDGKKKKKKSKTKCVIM

| SMILES | IC50 [1] [µM] | IC50 [2] [µM] | IC50 [3] [µM] | IC50 [4] [µM] |
| --- | --- | --- | --- | --- |
| N#Cc1c(N)sc2c(F)ccc(-c3c(C(F)(F)F)c4c5c(nc(OC[C@@]67CCCN6C[C@@]6(CC6(F)F)C7)nc5c3F)N([C@@H](c3cccnc3N)C(F)F)CCO4)c12 (single isomer, unassigned) [Compound 897] | > 2 | > 2 | > 2 | > 2 |
| Cc1c(F)c(N)cc(-c2nc3c4c(nc(O[C@@H](C)C5CCCN5C)nc4c2F)N([C@H](C)c2cccnc2N)CCO3)c1C(F)(F)F (single isomer, unassigned) [Compound 748] | ≤ 2 | ≤ 2 | ≤ 2 | ≤ 2 |
| C[C@H](c1cccnc1N)N1CCOc2c(C(F)(F)F)c(-c3ccc(F)c4sc(N)c(C#N)c34)c(F)c3nc(OCC4(CN5CCC(=C(F)F)CC5)CC4)nc1c23 (single isomer, unassigned) [Compound 693] | ≤ 2 | ≤ 2 | ≤ 2 | ≤ 2 |
| N#Cc1c(N)sc2c(F)ccc(-c3c(Cl)c4c5c(nc(OC[C@@]67CCCN6C[C@H](F)C7)nc5c3F)N(C(/C=C/F)c3cccnc3N)CCO4)c12 (single isomer, unassigned) [Compound 708] | ≤ 2 | ≤ 2 | ≤ 2 | ≤ 2 |
| N#Cc1c(N)sc2cccc(-c3c(Cl)c4c5c(nc(OC[C@@]67CCCN6C[C@H](F)C7)nc5c3F)N([C@@H](c3cccnc3N)C(F)F)CCO4)c12 (single isomer, unassigned) [Compound 802] | > 2 | > 2 | > 2 | > 2 |
| COc1ccc([C@@H](C)N2CCOc3c(Cl)c(-c4ccc(F)c5sc(N)c(C#N)c45)c(F)c4nc(OC[C@@]56CCCN5C[C@H](F)C6)nc2c34)c(N)n1 [Compound 706, 2-amino-4-(4-((R)-1-(2-amino-6-methoxypyridin-3-yl)ethyl)-8-chloro-10-fluoro-2-(((2R,7aS)-2-fluorotetrahydro-1H-pyrrolizin-7a(5H)-yl)methoxy)-5,6-dihydro-4H-[1,4]oxazepino[5,6,7-de]quinazolin-9-yl)-7-fluorobenzo[b]thiophene-3-carbonitrile] | ≤ 2 | ≤ 2 | ≤ 2 | ≤ 2 |
| C#C[C@H](c1cccnc1N)N1CCOc2c(Cl)c(-c3ccc(F)c4sc(N)c(C#N)c34)c(F)c3nc(OC[C@@]45CCCN4C[C@H](F)C5)nc1c23 [Compound 904, 2-amino-4-(4-((R)-1-(2-aminopyridin-3-yl)prop-2-yn-1-yl)-8-chloro-10-fluoro-2-(((2R,7aS)-2-fluorotetrahydro-1H-pyrrolizin-7a(5H)-yl)methoxy)-5,6-dihydro-4H-[1,4]oxazepino[5,6,7-de]quinazolin-9-yl)-7-fluorobenzo[b]thiophene-3-carbonitrile] | ≤ 2 | ≤ 2 | ≤ 2 | ≤ 2 |

Further lines, results first:

| IC50 [1] [µM] | IC50 [2] [µM] | IC50 [3] [µM] | IC50 [4] [µM] | SMILES |
| --- | --- | --- | --- | --- |
| ≤ 2 | ≤ 2 | ≤ 2 | ≤ 2 | N#Cc1c(N)sc2c(F)ccc(-c3c(C(F)(F)F)c4c5c(nc(OC[C@@]67CCCN6C[C@@]6(CC6(F)F)C7)nc5c3F)N([C@@H](c3cccnc3N)C(F)F)CCO4)c12 (single isomer, unassigned) [Compound 843] |
| ≤ 2 | ≤ 2 | ≤ 2 | ≤ 2 | C[C@H](c1cccnc1N)N1CCOc2c(C(F)(F)F)c(-c3ccc(F)c4sc(N)c(C#N)c34)c(F)c3nc(OCC4(CN5CCC6(CC5)CC6(F)F)CC4)nc1c23 (atropisomer, axis not shown) [Compound 613, 2-amino-4-((S)-4-((R)-1-(2-aminopyridin-3-yl)ethyl)-2-((1-((1,1-difluoro-6-azaspiro[2.5]octan-6-yl)methyl)cyclopropyl)methoxy)-10-fluoro-8-(trifluoromethyl)-5,6-dihydro-4H-[1,4]oxazepino[5,6,7-de]quinazolin-9-yl)-7-fluorobenzo[b]thiophene-3-carbonitrile] |
| ≤ 2 | ≤ 2 | ≤ 2 | ≤ 2 | CO[C@H]1CCN(C)[C@@H]1[C@H](C)Oc1nc2c3c(c(C(F)(F)F)c(-c4ccc(F)c5sc(N)c(C#N)c45)c(F)c3n1)OCCN2[C@H](CCC(F)(F)F)c1cccnc1N [Compound 649, 2-amino-4-(4-((R)-1-(2-aminopyridin-3-yl)-4,4,4-trifluorobutyl)-10-fluoro-2-((S)-1-((2R,3S)-3-methoxy-1-methylpyrrolidin-2-yl)ethoxy)-8-(trifluoromethyl)-5,6-dihydro-4H-[1,4]oxazepino[5,6,7-de]quinazolin-9-yl)-7-fluorobenzo[b]thiophene-3-carbonitrile] |
| ≤ 2 | ≤ 2 | ≤ 2 | ≤ 2 | C[C@H](c1cccnc1N)N1CCOc2c(C(F)(F)F)c(-c3ccc(F)c4sc(N)c(C#N)c34)c(F)c3nc(OCC4(CN5CCC(F)CC5)CC4)nc1c23 [Compound 836, 2-amino-4-(4-((R)-1-(2-aminopyridin-3-yl)ethyl)-10-fluoro-2-((1-((4-fluoropiperidin-1-yl)methyl)cyclopropyl)methoxy)-8-(trifluoromethyl)-5,6-dihydro-4H-[1,4]oxazepino[5,6,7-de]quinazolin-9-yl)-7-fluorobenzo[b]thiophene-3-carbonitrile] |
| ≤ 2 | ≤ 2 | ≤ 2 | ≤ 2 | C[C@H](c1cccnc1N)N1CCOc2c(C(F)(F)F)c(-c3ccc(F)c4sc(N)c(C#N)c34)c(F)c3nc(OCC4(CN5CCC(F)(F)CC5)CC4)nc1c23 [Compound 778, 2-amino-4-(4-((R)-1-(2-aminopyridin-3-yl)ethyl)-2-((1-((4,4-difluoropiperidin-1-yl)methyl)cyclopropyl)methoxy)-10-fluoro-8-(trifluoromethyl)-5,6-dihydro-4H-[1,4]oxazepino[5,6,7-de]quinazolin-9-yl)-7-fluorobenzo[b]thiophene-3-carbonitrile] |
| ≤ 2 | ≤ 2 | ≤ 2 | ≤ 2 | N#Cc1c(N)sc2c(F)ccc(-c3c(C(F)(F)F)c4c5c(nc(OC[C@@]67CCCN6C[C@H](F)C7)nc5c3F)N([C@H](CCC(F)(F)F)c3cc(Cl)cnc3N)CCO4)c12 [Compound 874, 2-amino-4-(4-((R)-1-(2-amino-5-chloropyridin-3-yl)-4,4,4-trifluorobutyl)-10-fluoro-2-(((2R,7aS)-2-fluorotetrahydro-1H-pyrrolizin-7a(5H)-yl)methoxy)-8-(trifluoromethyl)-5,6-dihydro-4H-[1,4]oxazepino[5,6,7-de]quinazolin-9-yl)-7-fluorobenzo[b]thiophene-3-carbonitrile] |
